Data on one molecule can be found in patent US7396538B2, “Apparatus and method for delivery of mitomycin through an eluting biocompatible implantable medical device” (Endovascular Devices, Inc., priority 2002, dated 2008).

Converted amounts (≈) assume the structure as drawn.

The assay concerns vascular smooth muscle cell. Briefly: vascular smooth muscle cell (VSMC) proliferation study at varying concentrations of mitomycin C. In kind it is cell-based. The protocol:
One example of a study was conducted to investigate the vascular smooth muscle cell proliferation (VSMC) from varying concentrations of the mitomycin C. […] A lower dosage of mitomycin C would still permit the advance of VSMC and contribute to increased restenosis and […]. Depending upon the observed biological effects from potentially cytotoxic local tissue levels, a higher concentration of mitomycin C may also still be sufficient.

As for `CO[C@@]12[C@H](COC(N)=O)C3=C(C(=O)C(C)=C(N)C3=O)N1C[C@@H]1N[C@@H]12` [mitomycin C], under “Rattus norvegicus, extrapolation from a logarithmic curve of VSMC inhibition at various dosages, read-out: concentration at which about 50% VSMC inhibition occurs”, the IC50 was about 0.067 µg/mL (≈ 0.2 µM). In addition, the VSMC inhibited entry runs as follows: (dose of about 0.334 micrograms per milliliter) “about 66%”; (dose of about 25.1 micrograms per milliliter) “about 98%”.
